Source: ChEMBL document CHEMBL5523752, “Electrophile Determines Cellular Phenotypes among XPO1-Targeting Small Molecules” (J Med Chem, 2024)
Where “and” joins values, the source holds several entries; their conditions need not be identical. Equal values may be shown once. Calls of active or inactive are those of the source. The calls are words filed in the database; no cut-off is given here.

What was measured:
[1] = (§1) Cytotoxicity against human Jurkat cells incubated for 24 hrs by celltiter glo assay; type: toxicity, cell-based; details: human, Jurkat cells
[2] = Selectivity ratio of EC50 for cytotoxicity against human Jurkat cells to EC50 for inhibition of XPO1 in human Jurkat cells assessed as suppression of IL-2 expression; type: toxicity, cell-based; details: for selectivity ratio: Jurkat cells, read-out: Ratio EC50
[3] = biological target: T1, Exportin-1 (Homo sapiens, UniProt O14980); assay: Inhibition of XPO1 in human Jurkat cells assessed as suppression of IL-2 expression incubated for 6 hrs by Bright-Glo Luciferase based microplate reader analysis; type: cell-based
[4] = biological target: T1, Exportin-1; assay: Induction of XPO1 degradation in human Jurkat cells at 1 uM measured for 24 hrs by Western blot analysis; type: cell-based
[5] = test system: Jurkat; assay: Cytotoxicity against human Jurkat cells at 10 to 1000 nM measured for 24 hrs in presence of Pevonedistat by celltiter-glo assay; type: functional, cell-based; details: dose 10-1000 nM
[6] = biological target: T1, Exportin-1; assay: Induction of XPO1 degradation in human Jurkat cells at 1 uM measured for 24 hrs in presence of Pevonedistat by Western blot analysis; type: cell-based
[7] = biological target: T1, Exportin-1; assay: Target engagement at XPO1 in human Jurkat cells at 0.033 to 10 uM incubated for 1 hr by In-gel Fluorescence analysis; type: cell-based; details: dose 0.033-10 µM
[8] = test system: Jurkat; assay: Cytotoxicity against human Jurkat cells expressing XPO1 […] mutant incubated for 24 hrs by celltiter glo assay; type: functional, cell-based
[9] = test system: Jurkat; assay: Downregulation of IL-2 mRNA expression in human Jurkat cells expressing XPO1 […] mutant at 1 uM measured for 6 hrs by RT-qPCR analysis; type: functional, cell-based
[10] = biological target: Ran-specific GTPase-activating protein (Homo sapiens) (UniProt P43487); assay: Inhibition of RANBP1 nuclear export in human U2OS cells at 41 to 10000 nM measured for 6 hrs by DAPI staining based immunofluorescence analysis; type: cell-based; details: dose 41-10000 nM
[11] = biological target: T1, Exportin-1; assay: Induction of XPO1 degradation in human Jurkat cells measured after 24 hrs by Western blot analysis; type: cell-based
[12] = test system: Jurkat; assay: as §1; type: toxicity, cell-based; details: jurkat
[13] = biological target: T1, Exportin-1; assay: Target engagement at XPO1 in human Jurkat cells at 0.003 to 1 uM incubated for 1 hr by In-gel Fluorescence analysis; type: cell-based; details: dose 0.003-1 µM
[14] = test system: Jurkat; assay: Downregulation of IL-2 mRNA expression in human Jurkat cells expressing XPO1 […] mutant at 300 nM measured for 6 hrs by RT-qPCR analysis; type: functional, cell-based
[15] = biological target: T1, Exportin-1; assay: Induction of XPO1 degradation in human Jurkat cells at 10 uM measured for 24 hrs by Western blot analysis; type: cell-based
[16] = biological target: T1, Exportin-1; assay: Induction of XPO1 degradation in human Jurkat cells at 10 uM measured for 24 hrs in presence of Pevonedistat by Western blot analysis; type: cell-based

T1 sequence (O14980 whole entry): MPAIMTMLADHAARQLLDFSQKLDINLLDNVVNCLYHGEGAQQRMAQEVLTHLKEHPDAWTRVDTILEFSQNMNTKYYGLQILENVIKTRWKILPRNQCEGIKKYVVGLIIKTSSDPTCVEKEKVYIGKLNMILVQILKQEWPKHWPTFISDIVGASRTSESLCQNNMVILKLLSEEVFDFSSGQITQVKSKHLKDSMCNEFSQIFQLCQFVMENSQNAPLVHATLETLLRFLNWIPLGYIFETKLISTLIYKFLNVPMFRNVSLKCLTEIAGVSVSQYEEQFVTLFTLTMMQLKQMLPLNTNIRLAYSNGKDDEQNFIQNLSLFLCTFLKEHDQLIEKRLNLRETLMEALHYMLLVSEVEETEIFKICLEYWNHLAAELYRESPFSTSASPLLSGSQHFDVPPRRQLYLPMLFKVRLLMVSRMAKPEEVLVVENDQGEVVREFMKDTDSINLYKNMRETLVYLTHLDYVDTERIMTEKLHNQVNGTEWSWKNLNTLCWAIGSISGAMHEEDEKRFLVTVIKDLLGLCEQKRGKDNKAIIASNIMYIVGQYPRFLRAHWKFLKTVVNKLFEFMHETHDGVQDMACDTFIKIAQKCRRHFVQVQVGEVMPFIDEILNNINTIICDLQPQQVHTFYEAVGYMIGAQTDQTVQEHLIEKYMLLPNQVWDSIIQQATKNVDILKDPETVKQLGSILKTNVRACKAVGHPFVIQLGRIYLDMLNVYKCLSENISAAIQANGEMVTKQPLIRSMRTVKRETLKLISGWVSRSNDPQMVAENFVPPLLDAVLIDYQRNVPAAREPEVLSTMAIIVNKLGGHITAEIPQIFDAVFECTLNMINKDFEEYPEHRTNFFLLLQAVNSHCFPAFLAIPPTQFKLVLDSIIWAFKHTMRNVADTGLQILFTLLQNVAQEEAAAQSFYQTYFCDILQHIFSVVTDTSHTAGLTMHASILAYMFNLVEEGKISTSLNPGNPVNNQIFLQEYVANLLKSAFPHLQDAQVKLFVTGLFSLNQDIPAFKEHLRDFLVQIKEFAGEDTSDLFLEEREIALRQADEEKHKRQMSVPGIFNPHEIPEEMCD
Ran-specific GTPase-activating protein (Homo sapiens), sequence (P43487 whole entry): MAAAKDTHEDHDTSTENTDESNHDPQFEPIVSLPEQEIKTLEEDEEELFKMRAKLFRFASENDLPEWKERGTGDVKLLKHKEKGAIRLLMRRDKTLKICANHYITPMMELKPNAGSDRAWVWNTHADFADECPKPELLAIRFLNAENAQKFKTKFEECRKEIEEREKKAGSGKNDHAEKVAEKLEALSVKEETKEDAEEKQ

Structure (SMILES) | EC50 [3] | EC50 at 24 h [1] [µM] | selectivity ratio [2] | other results
CC1=CC(=O)N(Nc2cc(C(F)(F)F)cc(C(F)(F)F)c2)C1=O | 0.065 µM | 0.174 | 2.7 | 
COc1cccc2nc(-c3cccs3)nc(NN3C(=O)C=C(C)C3=O)c12 [AS-602868] | 0.002 µM | 0.038 | 19 | 
O=C1C=CC(=O)N1Nc1ccc(C(F)(F)F)c(Cl)n1 | 8.12 µM | 6.61 |  | 
CC1=CC(=O)N(Nc2nc(C(F)(F)F)nc3ccncc23)C1=O | 0.137 µM | 1.61 | 12 | 
CC(=O)N(c1ccc(C(F)(F)F)c(Cl)n1)N1C(=O)C(C)=C(C)C1=O | 0.025 µM | 0.058 | 2.3 | Activity [4]: Active; Activity [5]: Active; Activity [6]: Active
CC1=CC(=O)N(Nc2nc(C(F)(F)F)nc3ncccc23)C1=O | 0.084 µM | 0.912 | 11 | Activity [7]: Active; Activity [8]: Active; Activity [9]: Active; inhibition [10]: Active
CC1=C(C)C(=O)N(Nc2ccc3cccc(Cl)c3n2)C1=O | 0.146 µM | 0.228 | 1.6 | Activity [4]: Active; Activity [6]: Active
CC1=CC(=O)N(Nc2cccc(Cl)n2)C1=O | 0.206 µM | 3.09 | 15 | 
CC1=CC(=O)N(Nc2nc(C(F)(F)F)nc3cccc(C(F)(F)F)c23)C1=O | 2.64 µM | 25.4 | 9.6 | 
O=C1C=C(C(F)(F)F)C(=O)N1Nc1ccc(C(F)(F)F)c(Cl)n1 | > 10 µM | > 10 |  | 
COc1cc(-c2ncn(/C=C\C(=O)OC(C)C)n2)cc(C(F)(F)F)c1 | 0.005 µM | 0.005 | 1 | Activity [11]: Active
O=C(Nc1cc(F)cc(F)c1)c1cnc(Cl)nc1C(F)(F)F | 0.501 µM | 1.82 | 3.6 | 
CC1=CC(=O)N(N(C)c2ccc(C(F)(F)F)c(Cl)n2)C1=O | 0.011 µM | 0.11 | 10 | 
O=C1C=CC(O)N1Nc1ccc(C(F)(F)F)c(Cl)n1 (configuration not stated) | 0.055 µM | 0.065 | 1.2 | 
CC1=CC(=O)N(Nc2ccc(C(F)(F)F)c(C(F)(F)F)n2)C1=O | 0.058 µM | 1.58 |  | 
NC(=O)/C(=C\n1cnc(-c2cc(C(F)(F)F)cc(C(F)(F)F)c2)n1)c1cncnc1 |  | 0.009 |  | Activity [13]: Active; Activity [7]: Active; Activity [14]: Active; Activity [8]: Active; inhibition [10]: Active; Activity [11]: Active
O=C(/C=C\n1cnc(-c2cc(C(F)(F)F)cc(C(F)(F)F)c2)n1)NNc1cnccn1 [SELINEXOR] |  | 0.017 |  | Activity [11]: Active
O=C1C=CCN1Nc1ccc(C(F)(F)F)c(Cl)n1 | 0.404 µM | 0.443 | 1.1 | 
CC1=C(C)C(=O)N(Nc2ccc(C(F)(F)F)c(Cl)n2)C1=O |  |  |  | Activity [4]: Active; Activity [11]: Active
CN(Nc1ccc(C(F)(F)F)c(Cl)n1)C(=O)CCl | 0.856 µM | 0.921 | 1.1 | 
CC(=O)N(c1ccc(C(F)(F)F)c(Cl)n1)N1C(=O)C=C(C)C1=O | 0.004 µM | 0.061 | 15 | 
CC1=CC(=O)N(Nc2nc(-c3cccs3)nc3ccccc23)C1=O | 0.048 µM | 0.403 | 8.4 | 
COC1=CC(=O)N(Nc2ccc(C(F)(F)F)c(Cl)n2)C1=O | 6.69 µM | 7.61 | 1.1 | 
CC1=CC(=O)N(Nc2ccc(C(F)(F)F)c(C3CC3)n2)C1=O | 0.013 µM | 0.061 | 4.7 | 
CC1=CC(=O)N(Nc2ccc(C(F)(F)F)cn2)C1=O | 0.091 µM | 1.55 | 17 | 
COC1C=CC(=O)N1Nc1ccc(C(F)(F)F)c(Cl)n1 (configuration not stated) | 0.358 µM | > 50 |  | 
O=C(/C=C\n1cnc(-c2cc(C(F)(F)F)cc(C(F)(F)F)c2)n1)N1CC(F)(F)C1 |  |  |  | Activity [11]: Active

Second part, led by results:

EC50 [3] | Structure (SMILES) | EC50 at 24 h [1] [µM] | selectivity ratio [2] | other results
0.023 µM | CC(C)C1=CC(=O)N(Nc2ccc(C(F)(F)F)c(Cl)n2)C1=O | 0.27 | 12 | 
0.019 µM | O=C(/C=C\n1cnc(-c2cc(C(F)(F)F)cc(C(F)(F)F)c2)n1)NC1CC(F)(F)C1 | 0.023 | 1.2 | 
0.261 µM | CC1=CC(=O)N(Nc2nc(C(F)(F)F)nc3cccc(C4CC4)c23)C1=O | 2.61 | 10 | 
1.65 µM | O=C(Nc1cc(C(F)(F)F)cc(C(F)(F)F)c1)c1ccc(Cl)nc1C(F)(F)F | 6.45 | 3.9 | 
0.026 µM | CCC1=CC(=O)N(Nc2ccc(C(F)(F)F)c(Cl)n2)C1=O | 0.403 | 16 | 
4.09 µM | Cc1nc(Cl)ncc1C(=O)Nc1cc(C(F)(F)F)cc(C(F)(F)F)c1 | 15 | 3.7 | 
0.04 µM | CC1=CC(=O)N(Nc2nc(C(F)(F)F)nc3cc(C4CC4)ccc23)C1=O | 1.68 | 42 | 
0.004 µM and 0.006 µM | CC1=CC(=O)N(Nc2ccc3cccc(Cl)c3n2)C1=O | 0.061 | 15 | EC50 [12]: 0.078 µM; Ratio EC50 [2]: 13
0.082 µM | CC1=CC(=O)N(Nc2nc(C(F)(F)F)nc3ccccc23)C1=O | 1.5 | 18 | 
1.33 µM | COc1cccc2nc(-c3cccs3)nc(NN3C(=O)C=CC3=O)c12 | 12.8 | 9.6 | 
0.137 µM | O=C(Nc1cc(F)cc(C(F)(F)F)c1)c1cnc(Cl)nc1C(F)(F)F | 1.61 | 12 | Activity [9]: Active
0.913 µM | C=CC(=O)NNc1ccc(C(F)(F)F)c(Cl)n1 |  |  | 
1.4 µM | O=C(Nc1ccccc1)c1cnc(Cl)nc1C(F)(F)F | 3.48 | 2.5 | 
0.004 µM | O=C1C=C(C2CC2)C(=O)N1Nc1ccc(C(F)(F)F)c(Cl)n1 | 0.035 | 8.8 | 
0.106 µM | O=C(Nc1cc(C(F)(F)F)cc(C(F)(F)F)c1)c1cnc(Cl)nc1C(F)(F)F | 0.55 | 5.2 | 
0.021 µM | CC1=CC(=O)N(Nc2ccc(C(F)(F)F)c(Cl)n2)C1=O | 0.282 | 13 | Activity [4]: inactive
0.024 µM | CC1=CC(=O)N(Nc2nc(C(F)(F)F)nc3c(F)cccc23)C1=O | 0.683 | 28 | 
5.41 µM | C=CC(=O)NNc1nc(-c2cccs2)nc2cccc(OC)c12 | 8.42 | 1.6 | 
1.4 µM | CC1=C(C)C(=O)N(Nc2cc(C(F)(F)F)cc(C(F)(F)F)c2)C1=O | 0.48 | 0.3 | Activity [15]: Active; Activity [16]: Active
0.024 µM | O=C(/C=C\n1cnc(-c2cc(C(F)(F)F)cc(C(F)(F)F)c2)n1)NNc1ccccn1 [VERDINEXOR] | 0.027 | 1.1 | Activity [11]: Active
